According to PMC3781147 (PLoS ONE, 2013):

Legend:
[1] = test system: NOP receptors on rat mesenteric microvascular endothelium; experiment: Intravital microscopy study A: FITC-N/OFQ binding in mesenteric microcirculation; format: in vivo, rat (male Wistar); conditions: n=5
heart rate = experiment: Heart rate in anesthetised rats (study B); format: in vivo, rat (male Wistar)
[2] = test system: leukocyte rolling in post-capillary venules (<40 µm); experiment: Intravital microscopy study B: leukocyte rolling; format: in vivo, rat (male Wistar); conditions: n=6
mean arterial pressure = experiment: Mean arterial pressure in anesthetised rats (study B); format: in vivo, rat (male Wistar)
mesenteric venules = experiment: Intravital microscopy study B: venule diameter; format: in vivo, rat (male Wistar)
mesenteric arterioles = experiment: Intravital microscopy study B: arteriole diameter; format: in vivo, rat (male Wistar); conditions: n=6
[3] = test system: post-capillary venules (<40 µm); experiment: Intravital microscopy study B: macromolecular leak of FITC-BSA; format: in vivo, rat (male Wistar); conditions: n=6
[4] = test system: heart rate, renal sympathetic nerve activity, MAP; conditions: 300 pmol UFP-101 into PVN, conscious Sprague-Dawley rats; cited from earlier work
Excerpt: (§1) Further studies likewise reported no differences in MAP between NOP^-/- and wild-type mice. However, our findings of tachycardia are in contrast to Burmeister & Kapusta. […] In ...

MAP = conditions: UFP-101 i.c.v.; cited from earlier work
Excerpt: as §1

[5] = test system: hypothalamic pituitary adrenal stress response; conditions: UFP-101 i.c.v.; cited from earlier work
Excerpt: (§2) Only one study has previously utilised the selective NOP antagonist [Nphe^1, Arg^14,Lys^15]

plasma TNF-α and IL-1β = conditions: 0.03 mg kg^-1 UFP-101; cited from earlier work
Excerpt: as §2

[6] = test system: cecal ligation and puncture (CLP) model of sepsis; conditions: 0.03 mg kg^-1, rats; improved from approximately 30%; cited from earlier work
Excerpt: as §2

[7] = test system: rat mesenteric microcirculation; conditions: unpublished data within previous studies; cited from earlier work
Excerpt: Despite this, as part unpublished data within previous studies we also observed vasoconstriction with UFP-101 [9]. Compared to larger blood vessels the mesenteric microcirculation as studied here (<40 µm) receives little neural control. Thu ...

CC(C)C[C@H](NC(=O)[C@H](CCCCN)NC(=O)[C@H](CCCNC(=N)N)NC(=O)[C@H](C)NC(=O)[C@H](CO)NC(=O)[C@H](CCCCN)NC(=O)[C@H](CCCNC(=N)N)NC(=O)[C@H](C)NC(=O)CNC(=O)[C@@H](NC(=O)[C@H](Cc1ccccc1)NC(=O)CNC(=O)CNC(=O)[C@@H](N)Cc1ccccc1)[C@@H](C)O)C(=O)N[C@@H](C)C(=O)N[C@@H](CC(N)=O)C(=O)N[C@@H](CCC(N)=O)C(=O)N[C@@H](CCCCNC(=S)Nc1ccc2c(c1)C(=O)OC21c2ccc(O)cc2Oc2cc(O)ccc21)C(N)=O [FITC-N/OFQ, [Lys(FITC)^18]N/OFQ-NH2]
Binding to mesenteric microvascular endothelium ([1]; 200 nM kg^-1 FITC-N/OFQ into mesenteric artery, control rats): bound to specific sites on the endothelium of arterioles
Time course of decay of FITC fluorescence with vs without N/OFQ ([1]; gray level over 60 s, 200 nM kg^-1 FITC-N/OFQ with (T-15) and without (T0) 200 nM.kg^-1 N/OFQ): The time courses were significantly different

lipopolysaccharide [LPS]
Heart rate change with LPS, T40 (heart rate; LPS i.v. -24 h 1 mg kg^-1, -2 h 0.5 mg kg^-1, n=6, p=0.004): significant increase in heart rate
Leukocyte rolling, T40, LPS ([2]; LPS i.v. -24 h and -2 h, median (IQR), control 3.0 (0.8 to 3.8), p=0.003): 7.0 per min
Mean arterial pressure, T40 (mean arterial pressure; LPS i.v. -24 h 1 mg kg^-1, -2 h 0.5 mg kg^-1, median (interquartile range), n=6, control 105 (95 to 110), p=0.429): 85 mmHg
Venule diameter, T40, LPS (mesenteric venules; LPS i.v. -24 h and -2 h, median (IQR), n=6, control 19.1 (17.8 to 20.8), p=0.002): 29.1 µm
Arteriole diameter change with LPS (mesenteric arterioles; LPS i.v. -24 h and -2 h, p=0.057): diameter changes in arterioles were not significant
Macromolecular leak, T40, LPS ([3]; LPS i.v. -24 h and -2 h, % change in interstitial FITC-BSA fluorescence from baseline, median (IQR), control 5.3 (-5.9 to 11.8), p=0.008): 95.3%

[Nphe^1, Arg^14,Lys^15] N/OFQ-NH2 [UFP-101]
Heart rate, T40 (heart rate; UFP-101 150 nM kg^-1 i.v. alone (no LPS), median (IQR), n=6, control 330 (308 to 330), p=0.04): 375 bpm
Effect on LPS-induced heart rate increase (heart rate; UFP-101 150 nM kg^-1 i.v. in LPS rats, T40, n=6, p=0.004): not altered by the addition of UFP-101
Effect on LPS-induced tachycardia (heart rate; UFP-101 i.v., LPS rats): no reversal of the tachycardia
Leukocyte rolling, T40, LPS + UFP-101 ([2]; 150nmol.kg^-1 UFP-101 i.v. in LPS rats, median (IQR), not significantly different from controls (p=0.117)): 0 per min
Effect on leukocyte rolling, no LPS ([2]; UFP-101 150 nmol kg^-1 i.v. alone, p=0.394): no effect
Heart rate and renal sympathetic nerve activity [4]: increased heart rate and renal sympathetic nerve activity
MAP after PVN injection [4]: non-significant increase in MAP
Effect on MAP, i.c.v. mice (MAP): no effect on MAP
Effect on MAP (mean arterial pressure; UFP-101 150 nM kg^-1 i.v. alone (no LPS), n=6): no significant effect on MAP
Effect on LPS-induced hypotension (mean arterial pressure; UFP-101 i.v., LPS rats): no reversal of the tachycardia or mild hypotension induced by LPS
HPA stress response to LPS [5]: reduced the hypothalamic pituitary adrenal stress response to LPS
Plasma TNF-α and IL-1β in CLP (plasma TNF-α and IL-1β): reduced plasma concentrations of TNF-α and IL-1β
Survival in CLP, UFP-101 [6]: ~65%
Vessel constriction [7]: vasoconstriction
Venule diameter, UFP-101 (mesenteric venules; UFP-101 150 nM kg^-1 i.v. alone (no LPS), T40, median (IQR), n=6, control 19.1 (17.8 to 20.8), p=0.001, difference also present initially): 9.7 µm
Effect on LPS-induced venule vasodilation (mesenteric venules; UFP-101 150 nM kg^-1 i.v., LPS rats): reduced vasodilation of venules in response to LPS
Arteriole diameter, T40, UFP-101 (mesenteric arterioles; UFP-101 150 nM kg^-1 i.v. alone (no LPS), median (IQR), control 16.2 (10.9 to 17.7), p=0.004, difference also present initially): 7.1 µm
Macromolecular leak, T40, LPS + UFP-101 ([3]; 150nmol.kg^-1 UFP-101 i.v. in LPS rats, median (IQR), not significantly different from controls (p=0.063)): -34.9%
Effect on macromolecular leak, no LPS ([3]; UFP-101 150 nmol kg^-1 i.v. alone, p=0.151): no effect
